According to BindingDB's records for doi:10.1021/jm050738x (University of Tokyo, 2006):

Test: Antagonist activity assessed by differentiation of 1,25-D3-induced HL60 cells

Row | Structure (SMILES) | IC50 [µM]
1 | C=C1/C(=C\C=C2/CCC[C@@]3(C)C2CC[C@@H]3[C@H](C)C[C@H]2C[C@](C)(O)C(=O)N2Cc2ccc(OC)cc2)C[C@@H](O)C[C@@H]1O (some centres not stated) | 0.66
2 | C=C1/C(=C\C=C2/CCC[C@]3(C)[C@@H]([C@H](C)C[C@H]4C[C@](C)(O)C(=O)N4CCCCc4ccccc4)CC[C@@H]23)C[C@@H](O)C[C@@H]1O [(3S,5S)-5-((R)-2-((1R,3aS,7aR)-4-(2-((3S,5R)-3,5-dihydroxy-2-methylenecyclohexylidene)ethylidene)-7a-methyl-octahydro-1H-inden-1-yl)propyl)-3-hydroxy-3-methyl-1-(4-phenylbutyl)pyrrolidin-2-one] | 0.39
3 | C=C1/C(=C\C=C2/CCC[C@]3(C)[C@@H]([C@H](C)C[C@H]4C[C@](C)(O)C(=O)N4CCc4ccccc4)CC[C@@H]23)C[C@@H](O)C[C@@H]1O [(3S,5S)-5-((R)-2-((1R,3aS,7aR)-4-(2-((3S,5R)-3,5-dihydroxy-2-methylenecyclohexylidene)ethylidene)-7a-methyl-octahydro-1H-inden-1-yl)propyl)-3-hydroxy-3-methyl-1-phenethylpyrrolidin-2-one] | 0.207

The remaining lines, values ahead:

Row | IC50 [µM] | Structure (SMILES)
4 | > 1 | C=C1/C(=C\C=C2/CCC[C@@]3(C)C2CC[C@@H]3[C@H](C)C[C@H]2C[C@](C)(O)C(=O)N2C(C)C)C[C@@H](O)C[C@@H]1O (some centres not stated)
5 | > 2 | C=C1/C(=C\C=C2/CCC[C@]3(C)[C@@H]([C@H](C)C[C@H]4C[C@@](C)(O)C(=O)N4CCc4ccccc4)CC[C@@H]23)C[C@@H](O)C[C@@H]1O [(3R,5S)-5-((R)-2-((1R,3aS,7aR,E)-4-((Z)-2-((3S,5R)-3,5-dihydroxy-2-methylenecyclohexylidene)ethylidene)-7a-methyloctahydro-1H-inden-1-yl)propyl)-3-hydroxy-3-methyl-1-phenethylpyrrolidin-2-one]
6 | 0.7 | C=C1/C(=C\C=C2/CCC[C@]3(C)[C@@H]([C@H](C)C[C@H]4C[C@](C)(O)C(=O)N4Cc4ccccc4)CC[C@@H]23)C[C@@H](O)C[C@@H]1O [(3S,5S)-1-benzyl-5-((R)-2-((1R,3aS,7aR)-4-(2-((3S,5R)-3,5-dihydroxy-2-methylenecyclohexylidene)ethylidene)-7a-methyl-octahydro-1H-inden-1-yl)propyl)-3-hydroxy-3-methylpyrrolidin-2-one]
7 | 2.2 | C=C1/C(=C\C=C2/CCC[C@]3(C)[C@@H]([C@H](C)C[C@H]4C[C@](C)(O)C(=O)N4CCCc4ccccc4)CC[C@@H]23)C[C@@H](O)C[C@@H]1O [(3S,5S)-5-((R)-2-((1R,3aS,7aR)-4-(2-((3S,5R)-3,5-dihydroxy-2-methylenecyclohexylidene)ethylidene)-7a-methyl-octahydro-1H-inden-1-yl)propyl)-3-hydroxy-3-methyl-1-(3-phenylpropyl)pyrrolidin-2-one]
